The results in this text go back to patent US9115065B2 (priority 2004, dated 2015).

Common to all, as to assay: microbe, parasite or virus in culture
Assay type in all cases: cell-based

One assay has as its system Tacaribe. As to conditions: Mammarenavirus tacaribeense, HEK-293T, read-out: Antiviral activity vs. pseudotyped viruses: Tacaribe.
The test system of a further assay is Machupo. As to conditions: Mammarenavirus machupoense, HEK-293T, read-out: Antiviral activity vs. pseudotyped viruses: Machupo.
For the next assay, the system named is VSV. As to conditions: Vesicular stomatitis virus, HEK-293T, read-out: VSV (μM) (negative control).
The test system of the next assay is Guanarito. The following applies: Mammarenavirus guanaritoense, HEK-293T, read-out: Antiviral activity vs. pseudotyped viruses: Guanarito.

Molecules are shown by their SMILES. pEC50: −log10 of the molar value.

For the compound `CCC(NC(=O)NNS(=O)(=O)c1cc(Cl)ccc1OC)(C(F)(F)F)C(F)(F)F` [Compound 104, 1-[1,1-bis(trifluoromethyl)propyl]-3-[(5-chloro-2-methoxy-phenyl)sulfonylamino]urea], the pEC50 in the assay on Tacaribe, in the assay on Machupo and in the assay on Guanarito was greater than 6.00 each time. For the same compound, the EC50 in the assay on VSV is greater than 30 µM.
In the case of `CCC(NC(=O)NNS(=O)(=O)c1ccccc1-c1ccccc1)(C(F)(F)F)C(F)(F)F` [Compound 105, 1-[1,1-bis(trifluoromethyl)propyl]-3-[(2-phenylphenyl)sulfonylamino] urea], the pEC50 in the assay on Tacaribe, in the assay with Machupo and in the assay with Guanarito was greater than 6.00 throughout. The EC50 in the assay with VSV is greater than 30 µM.
With `CCC(NC(=O)NNS(=O)(=O)c1c(C)cc(C)cc1C)(C(F)(F)F)C(F)(F)F` [Compound 99, 1-[1,1-bis(trifluoromethyl)propyl]-3-[(2,4,6-trimethylphenyl)sulfonylamino] urea], the pEC50 in the assay with Tacaribe, in the assay on Machupo and with Guanarito was greater than 6.00 each time. In addition, the EC50 in the assay with VSV was greater than 30 µM.
On to `CCC(NC(=O)NNS(=O)(=O)c1ccc(C(C)C)cc1)(C(F)(F)F)C(F)(F)F` [Compound 103, 1-[1,1-bis(trifluoromethyl)propyl]-3-[(4-isopropylphenyl)sulfonylamino] urea], for which the pEC50 in the assay on Tacaribe, in the assay with Machupo and in the assay on Guanarito was greater than 6.00 throughout. In addition, in the assay with VSV, the EC50 was greater than 20 µM.
Consider `CCC(NC(=O)NNS(=O)(=O)c1cccc2ccccc12)(C(F)(F)F)C(F)(F)F` [Compound 111, 1-[1,1-bis(trifluoromethyl)propyl]-3-(1-naphthylsulfonylamino)urea], for which the pEC50 in the assay on Tacaribe, in the assay on Machupo and with Guanarito was greater than 6.00 each time. Further, the EC50 in the assay with VSV is greater than 30 µM.
`CCC(NC(=O)NNS(=O)(=O)c1cc(C)cc(C)c1)(C(F)(F)F)C(F)(F)F` [Compound 109, 1-[1,1-bis(trifluoromethyl)propyl]-3-[(3,5-dimethylphenyl)sulfonylamino] urea]: the pEC50 is greater than 6.00 in the assay with Tacaribe, greater than 5.00 in the assay on Machupo and greater than 5.00 in the assay with Guanarito. For the same compound, the EC50 with VSV is greater than 30 µM.
For `CCC(NC(=O)NNS(=O)(=O)c1cc(OCC(F)(F)F)ccc1OCC(F)(F)F)(C(F)(F)F)C(F)(F)F` [Compound 113, 1-[[2,5-bis(2,2,2-trifluoroethoxy)phenyl]sulfonyl-amino]-3-[1,1-bis(trifluoromethyl)propyl]urea], the pEC50 with Tacaribe, in the assay on Machupo and in the assay on Guanarito was greater than 6.00 throughout. Moreover, the EC50 in the assay with VSV amounted to 21 µM.
Turning to `CCC(NC(=O)NNS(=O)(=O)c1ccc(Cl)c(Cl)c1)(C(F)(F)F)C(F)(F)F` [Compound 106, 1-[1,1-bis(trifluoromethyl)propyl]-3-[(3,4-dichlorophenyl)sulfonylamino]urea], the pEC50 in the assay with Tacaribe, with Machupo and in the assay with Guanarito was greater than 6.00 in each case. Moreover, the EC50 with VSV was greater than 30 µM.
With `CCC(NC(=O)NNS(=O)(=O)c1cc(Br)ccc1OC)(C(F)(F)F)C(F)(F)F` [Compound 115, 1-[1,1-bis(trifluoromethyl)propyl]-3-[(5-bromo-2-methoxy-phenyl)sulfonylamino]urea], the pEC50 with Tacaribe, in the assay with Machupo and in the assay on Guanarito was greater than 6.00 each time. Also, the EC50 in the assay with VSV was greater than 30 µM.
In the case of `CCC(NC(=O)NNS(=O)(=O)c1cc(OC)ccc1OC)(C(F)(F)F)C(F)(F)F` [Compound 101, 1-[1,1-bis(trifluoromethyl)propyl]-3-[(2,5-dimethoxyphenyl)sulfonylamino] urea], the pEC50 with Tacaribe, in the assay on Machupo and with Guanarito was greater than 6.00 throughout. Besides, in the assay with VSV, the EC50 was greater than 30 µM.
